We go through one substance from US20240043842A1, “MUSCLE RETENTION IN AGING AND DUCHENNE MUSCULAR DYSTROPHY (DMD) THROUGH S1P INHIBITION” (Washington University, priority 2022, published 2024).

In test [1] the test system is C2C12 cells. Kind of test: MSS51 expression by qPCR in C2C12 cells treated with vehicle or TGF-β1. Conditions: scrambled and S1P-depleted C2C12 cells, 50 ng/ml for 5 h, versus vehicle. The test is classed as cell-based, murine. The procedure:
Total RNA was isolated from C2C12 cells, skeletal muscle, heart, adipose, kidney, and liver with RNA STAT-60 (Tel-Test Inc) as per manufacturer's instructions. For tissues, RNA was isolated by disrupting tissue in RNA STAT-60 using […] (Qiagen) and a TissueLyser II (Qiagen). RNA was reverse transcribed into cDNA using the High-Capacity cDNA Reverse Transcription Kit (Applied Biosystems). Quantitative real-time PCR was performed using Power SYBR green (Applied Biosystems) and transcripts quantified on an ABI QuantiStudio 3 sequence detection system (Applied Biosystems). Data was normalized to 36B4 expression, unless otherwise noted, and results analyzed using the 2^−ΔΔCt method and reported as relative units to controls.
C2C12 cells were plated onto 6-well plates at a 2×10^5 density and 24 h later transfected with either negative control siRNA (Negative Control No. 1 siRNA, Life Technologies) or custom siRNAs targeting S1P (Silencer Select siRNAs, Life Technologies) using Lipofectamine RNAiMAX as per manufacturer's instructions. After 48 h, cells were either harvested for gene expression analysis or differentiated with DMEM supplemented with 2% horse serum. Two days after differentiation, cells were harvested for gene expression analysis. […]
In general terms: Quantitative PCR measures a nucleic acid by following its amplification.

The test system of test [2] is C2C12 cells. The test can be described thus: Western blot of phosphorylated Smad 2 and AKT in TGF-β1-treated C2C12 cells. Conditions: TGF-β1-treated versus untreated cells, whole-cell lysates. The test is classed as cell-based, murine. The procedure:
C2C12 cells were plated onto 6-well plates at a 2×10^5 density and 24 h later transfected with either negative control siRNA (Negative Control No. 1 siRNA, Life Technologies) or custom siRNAs targeting S1P (Silencer Select siRNAs, Life Technologies) using Lipofectamine RNAiMAX as per manufacturer's instructions. After 48 h, cells were either harvested for gene expression analysis or differentiated with DMEM supplemented with 2% horse serum. Two days after differentiation, cells were harvested for gene expression analysis. For TGF-β1 treatment studies, three days post-differentiation, cells were treated with 50 ng/ml TGF-β1 (R&D) for 5 h then harvested for downstream endpoints.
Skeletal muscle whole protein lysates were generated by homogenizing tissues in lysis buffer (20 mM Tris, 15 mM NaCl, 1 mM EDTA, 0.2% NP-40, and 10% glycerol) supplemented with 2× Protease Complete cocktail tablet (Roche) and 1× Phosphatase Inhibitors (Roche, Mannheim, Germany) with stainless steel beads in a TissueLyzer II (Qiagen). Protein lysates were rotated for 45 min at 4° C., followed by centrifugation at 15,000×g for 15 min at 4° C. Protein was quantified by bicinchoninic acid assay (BCA, Pierce Biotechnology), equal amounts of protein were resolved on a 4-15 SDS-PAGE gradient gel (Bio-Rad), and transferred to PVDF-FL membrane (MilliporeSigma). […]

As for “TGF-β1: recombinant TGF-β1 (R&D) used to treat C2C12 cells”, the “MSS51 expression in the presence of TGF-β1” value with C2C12 cells [1] is “increased”. Also, the “Smad 2 phosphorylation induced by TGF-β1” value in the test on C2C12 cells [2] was “induced”.
